Reference: patent US20240099298A1, “BIOINSECTICIDAL COMPOSITIONS CONTAINING MONOTERPENES AND METHODS OF USE THEREOF” (priority 2017, published 2024)
Converted amounts (≈) assume the structure as drawn. “And” between values parts separate entries of the source, which are not always exact repeats. Equal entries are not always repeated. Where two headings read alike, the source gives them in different places.

Experiments:
[1] = tested on: Megalurothrips usitatus (Bagrall) (thrips); test: Median lethal concentration fumigation test, thrips
Description: (§1) Median Lethal Concentration Tests. […] The species tested included Thrips (M. usitatus), spider mite (T. cinnabarinus), melon fly (B. cucuribitae), cockroach (B. lateralis), housefly (M. domestica), mosquito (A. aegypti), parasitic wasp (T. chilonis) and fruit fly (Drosophila melanogaster). After being exposed to the test chemicals for one hour, adult Thrips, spider mites, and roaches were transferred to another flask. In addition to fresh water, adult Thrips, spider mites, and roaches were then respectively fed with cowpea, fresh blade of eggplant, and peanut oil via filter. […] Mortality of melon fly was observed after three hours of exposure.

[2] = tested on: Aedes aegypti (Linnaeus) (mosquito)
Description: as §1

[3] = tested on: Bactrocera cucuribitae (Coquillett) (melon fly)
Description: as §1

[4] = tested on: Blatta lateralis (Walker) (cockroach)
Description: as §1

[5] = tested on: Musca domestica (Linnaeus) (housefly)
Description: as §1

[6] = tested on: Tetranychus cinnabarinus (Boisduval) (spider mites)
Description: as §1

[7] = tested on: Drosophila melanogaster (fruit fly); test: Median lethal concentration fumigation test, fruit fly; assay type: in vivo; conditions: mortality after 280 minutes
[8] = tested on: B. cucuribitae (melon fly); test: Median lethal time (LT50) test, melon fly; assay type: in vivo, Bactrocera cucuribitae
Description: (§2) All treatments and controls were in triplicate.
(§3) Toxicity of Monoterpenes as Fumigants. […] Therefore, to determine how fast the monoterpenes act as fumigants, it was necessary to determine their LT50 values for the target organisms.

[9] = tested on: T. castaneum (red flour beetle); test: Median lethal time (LT50) test, red flour beetle; assay type: in vivo, Tribolium castaneum
Description: as §2, §3

[10] = tested on: H. picinus (Nitidulid beetle); test: Median lethal time (LT50) test, Nitidulid beetle; assay type: in vivo, Haptoncus picinus
Description: as §2, §3

Aedes aegypti (mosquito) = test: Median knockdown concentration (KC50) test, mosquito; assay type: in vivo
Description: as §2
(§4) Knockdown Activity of Monoterpenes.

[11] = tested on: Musca domestica (housefly); test: Median knockdown concentration (KC50) test, housefly; assay type: in vivo; conditions: Musca domestica
Description: as §2, §4

[12] = tested on: T. chilonis (parasitic wasp); conditions: non-target parasitic wasp, mortality after 15 minutes of exposure
Description: (§5) Insect Egg Parasitic Wasp (Natural Enemy). […] Both species were purchased from a commercial source. One- to two-day-old adults (after eclosion) were used for fumigation tests.
as §1

[13] = tested on: A. japonicus (parasitic wasp); test: Median lethal time (LT50) test, parasitic wasp (natural enemy)
Procedure: as §5
Median Lethal Time (LT50) and Median Knockdown Concentration (KC50) Tests. Five species of adult insects or natural enemies were tested for LT50 values including melon fly (B. cucuribitae), red flour beetle (T. castaneum), Nitidulidae beetle (H. picinus), parasitic wasp (A. japonicus) and housefly (M. domestica). For each treatment and control, 20 insects at the developmental stages described above were placed individually without food in a 1-L wide-mouth glass bottle (height 19.5 cm, bottom diameter 10.5 cm, mouth i.d. 5.5 cm) containing pieces of tissue paper. […] Five different concentrations of the test chemicals were placed on pieces of cellulose-based qualitative filter paper. Each of the filter papers was placed in a bottle to have 5 appropriate concentrations in serial dilutions. DDVP was the positive control, and no chemical treatments were the negative control. All treatments and controls were in triplicate. Mortality was observed periodically in a 10-30 minute interval for 2 days or until all insects died. The death was defined as no movement when the insects were touched.

honeybee Apis mellifera = test: 24-hour fumigation assay on honeybee; conditions: for Mortality ± STD: 60 bees; for toxicity to honeybee (in words): 24-hour fumigation
Description: Experiments were done with 20 bees per group in triplicate.
Activity of Monoterpenes Against Honeybees. The honeybee (Apis mellifera) is the most frequent floral visitor of crops worldwide.

[14] = molecular target: T1, recombinant gamma-aminobutyric acid receptor-associated protein (rGABARAP) (Frankliniella occidentalis, UniProt A0A6J1T1Q2); test: Microscale thermophoresis (MST) binding to rGABARAP
Description: (§6) Preparation of recombinant GABARAP (rGABARAP) protein. RNA was extracted from F. occidentalis and cDNA was then synthesized. GABARAP (GenBank accession No. LOC113211372) was obtained after PCR amplification (Stafford-Banks, et al. (2014) Plos One 9:e94447).
(§7) Interaction between ME and rGABARAP. A Nano Temper Monolith NT.115 MST system (Nano Temper, Munich, Germany) was used to assess the binding affinities between the target compounds and rGABARAP according to the published procedures (Zan, et al. (2020) Journal of Agricultural and Food Chemistry 68:6280-6285). Spinosyn A was used as a chemical positive control. Spinosyn A (≥1 nM) can trigger a change of the Cl^− current of insect neuron GABAAR, which is considered to be an insecticidal action mechanism of spinosyn A (Watson (2001) Pesticide Biochemistry and Physiology 71:20-28). Ovalbumin (OVA) (Sangon Biotech, Shanghai, China) is a control protein consisting of 385 amino acid residues. The interaction between OVA and ME was used as a protein control experiment (Huntington, et al. (1995) Protein Science 4:613-621).

[15] = tested on: Megalurothrips usitatus (flower Thrips); conditions: adult M. usitatus, 24 hours of fumigation in 1-L flasks
[16] = tested on: Thrips Megalurothrips usitatus; conditions: 24-hour fumigation assay, 0-0.192 μL/dm^3
[17] = T 25 °C; cited from earlier work
adult T. palmi = conditions: cited from earlier work
[18] = tested on: Frankliniella occidentalis second-instar nymphs; test: whole plant or invertebrate; conditions: 24 h
Procedure: Chemicals. […] These monoterpenes and the positive control spinosyn A (Bosite Technology, Chongqing, China) were dissolved in acetone (10 g/L).
Insects. F. occidentalis Thrips were provided by the Institute of Vegetables and Flowers, Chinese Academy of Agricultural Sciences (Beijing, China), and kept in a box (19 cm×14 cm×20 cm) at 27±1° C., humidity of 50%-60% and a photoperiod of 16:8 h (light:dark). The population was established with sword beans (Canavalia gladiata). Second-instar nymphs with the same growth were tested.
Insect Assays. […] The leaf blade (2 cm×3 cm) was immersed in the solution for 10 s in the test solution, and then air-dried until there were no water drops on the surface. The concentrations were the same as those used in the insecticide-impregnated membrane method. After the chemical film had been formed for 2 h, the infusion leaves were placed in the bottles. The second-instar nymphs were picked with a soft writing brush to make up ten insects per bottle. The bottles were sealed with plastic wrap. 1% Triton X-100 (m/V) aqueous solution as a blank control. Each treatment was repeated four times. The bottles were placed under temperature of 27±1° C., humidity of 50%-60% and photoperiod of 16:8 h (light:dark). […] The insects were touched with a soft brush and numbers of dead and living Thrips were recorded, followed by calculation of the mortality rates.

[19] = molecular target: T1, recombinant gamma-aminobutyric acid receptor-associated protein (rGABARAP); test: Isothermal titration calorimetry (ITC) binding to rGABARAP; conditions: 25° C., pH 7.4
Procedure: as §6
(§8) The isothermal titration thermal binding measurements were performed with an ITC-200 calorimeter (GE Healthcare, Boston, MA) at 25° C. in a buffer containing 50 mM Tris-HCl and 100 mM NaCl (pH 7.4). […] The MicroCal Origin 7.0 software system was used for data processing. The first run was a pre-run and was excluded from the final data. The amount of protein in the sample pool was constant. […] The experimental bimolecular interaction data from the 18 drops were used to calculate the dissociation constant. The dissociation constant […] was calculated as 1/K (Li, et al. (2018) RSC Advances 8:18952-18958).

rGABARAP^Y174A [20] = molecular target: T2, rGABARAP^Y174A (Frankliniella occidentalis, UniProt A0A6J1T1Q2); test: MST binding to rGABARAP mutant; conditions: read-out: Kd value, MST
Procedure: as §7
(§9) Preparation of rGABARAP Mutant and Interaction Between ME and rGABARAP Mutant. […] DNAman was used to convert the nucleic acid sequence into an amino acid sequence and find the Y174 site. Y174 was mutated to A174. The rGABARAP mutant gene loaded into the pMCSG19 vector and the His tags at both ends of the sequence were retained to construct a prokaryotic expression plasmid. The carrier contained a maltose binding protein (MBP) tag that was not cut for verification. However, MBP and ME were used as treatment controls. The mutant plasmid was constructed in Sangon Biotech (Shanghai, China). The protein expression, purification, and desalting procedures of rGABARAP^Y174A mutant and rGABARAP were the same. Subsequently, the binding kinetics of ME and rGABARAP^Y174A were tested by MST and ITC.

rGABARAP^Y174A [21] = molecular target: T2, rGABARAP^Y174A; test: ITC binding to rGABARAP mutant
Procedure: as §8, §9

[22] = adult thrips, exposed one hour, mortality observed in 24 hours
[23] = rGABARAP, read-out: Kd value, MST

T1 sequence (A0A6J1T1Q2 1-118): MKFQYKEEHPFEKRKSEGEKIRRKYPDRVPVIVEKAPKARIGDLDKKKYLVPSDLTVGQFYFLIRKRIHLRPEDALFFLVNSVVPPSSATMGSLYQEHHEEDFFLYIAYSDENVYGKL
T2 sequence (A0A6J1T1Q2 entry or part of it, stated change not applied): as the sequence (A0A6J1T1Q2 1-118) above

Structure (SMILES): CC(C)=C1CC[C@@H](C)CC1=O [(+)-Pulegone]
- LC50 (fiducial limits) [1, 22]: 0.20 µg/mL (≈ 1.31 µM)
- LC90 (fiducial limits) [1, 22]: 0.67 µg/mL (≈ 4.4 µM)
- LC50 (fiducial limits) ([1]; adult thrips, exposed one hour, mortality observed in 24 hours, listed as (+)-pulegone): 0.196 µg/mL (≈ 1.29 µM)
- activity fold greater (smaller LC50) than positive control DDVP ([1]; thrips): 3.5 fold
- LC90 (fiducial limits) ([2]; adult mosquito, exposed 30 minutes, mortality in 24 hours): 16.8 µg/mL (≈ 110 µM)
- LC50 (fiducial limits) ([2]; in vivo): 10.3 µg/mL (≈ 67.7 µM)
- LC50 (fiducial limits) ([3]; in vivo): 112 µg/mL (≈ 736 µM)
- LC90 (fiducial limits) ([3]; melon fly): 657 µg/mL (≈ 4320 µM)
- LC90 (fiducial limits) ([4]; cockroach second instar nymphs, exposed one hour): 173 µg/mL (≈ 1140 µM)
- LC50 (fiducial limits) ([4]; in vivo): 15.0 µg/mL (≈ 98.5 µM)
- LC90 (fiducial limits) ([5]; adult housefly, exposed one hour, mortality in 24 hours): 11.9 µg/mL (≈ 78.2 µM)
- LC50 (fiducial limits) ([5]; in vivo): 7.38 µg/mL (≈ 48.5 µM)
- LC50 (fiducial limits) ([6]; in vivo): 2.52 µg/mL (≈ 16.6 µM)
- LC90 (fiducial limits) ([6]; spider mites, exposed one hour): 40.8 µg/mL (≈ 268 µM)
- LC50 (fiducial limits) [7]: 0.043 ng/mL (≈ 0.000282 µM)
- LC90 (fiducial limits) [7]: 0.00014 µg/mL (≈ 0.00092 µM)
- LT50 (fiducial limits) [8]: 0.87 h
- fold faster action relative to the other five monoterpenes (LT50) [8]: at least 1.9 fold
- LT50 (fiducial limits) [9]: 3.47 h
- LT50 (fiducial limits) [10]: 0.50 h
- fold faster action relative to the other five monoterpenes (LT50) [10]: ≥ 1.2 fold
- LT50 (fiducial limits) ([10]; listed as (+)-pulegone): 0.500 h
- KC50 (fiducial limits) (Aedes aegypti (mosquito); 10 Minutes): 19.6(8.41-35.5) μg/cm^3
- KC50 (fiducial limits) (Aedes aegypti (mosquito); 20 Minutes): 1.40 µg/mL
- KC50 (fiducial limits) (Aedes aegypti (mosquito); 30 Minutes): 1.4 µg/mL
- KC50 (fiducial limits) ([11]; 20 Minutes): >243 µg/mL
- KC50 (fiducial limits) ([11]; 30 Minutes): 12.2 µg/mL
- LC50 (fiducial limits) against T. chilonis [12]: 2.02 µg/mL and 2.06 µg/mL
- LC90 (fiducial limits) against T. chilonis [12]: 12.1 µg/mL (≈ 79.5 µM)
- LT50 fold greater than that of DDVP ([13]; A. japonicus): approximately 1.2 fold
- LT50 (fiducial limits) against A. japonicus ([13]; non-target parasitic wasp): 0.47 (0.00-0.68) hour
- Mortality ± STD (honeybee Apis mellifera; 0.012 μL/dm^3, 24-hour fumigation): 5.0 ± 8.7%
- Mortality ± STD (honeybee Apis mellifera; 0.024 μL/dm^3, 24-hour fumigation): 3.3 ± 5.8%
- Mortality ± STD (honeybee Apis mellifera; 0.048 μL/dm^3, 24-hour fumigation): 5.0 ± 5.0%
- Mortality ± STD (honeybee Apis mellifera; 0.096 μL/dm^3, 24-hour fumigation): 5.0 ± 5.0%
- Mortality ± STD (honeybee Apis mellifera; 0.192 μL/dm^3, 24-hour fumigation): 8.3 ± 7.6%
- mortality relative to no chemical control (honeybee Apis mellifera; 0.2 μL/dm^3, 24-hour fumigation): 3%
- toxicity to honeybee (in words) (honeybee Apis mellifera): little lethal toxicity
- toxicity to honeybee (in words) (honeybee Apis mellifera; listed as (+)-pulegone): failed to have a negative impact
- Kd [14, 23]: 1.72 µM
- activity against flower Thrips in preliminary screening [15]: exhibit insecticidal activity
- LC50 [16]: 0.079 μL/dm^3
- Vp (Pa)/T (° C.) [17]: 16.3/25 Pa

Structure (SMILES): CC(C)=C1CC[C@H](C)CC1=O [(−)-Pulegone]
- LC50 (fiducial limits) [7]: 0.106 ng/mL (≈ 0.000696 µM)
- LC90 (fiducial limits) [7]: 0.000359 µg/mL (≈ 0.00236 µM)
- Kd [14, 23]: 2.53 µM
- LC50 [16]: 0.119 μL/dm^3
- Vp (Pa)/T (° C.) [17]: 16.3/25 Pa
- LC50, fumigation toxicity (adult T. palmi): 9.5 µg/mL (≈ 62.4 µM)

Structure (SMILES): COc1cccc2c1cc([N+](=O)[O-])c1c(C(=O)O)cc3c(c12)OCO3 [Aristolochic acid A, 3,4-methylenedioxy-8-methoxy-10-nitro-1-phenanthrenecarboxylicacid, reference compound]
- LC50 [18]: 40 µg/mL (≈ 117 µM)
- Kd [14]: 146 µM
- Kd value, ITC [19]: no binding
- Kd (rGABARAP^Y174A [20]): 158 ± 82 µM
- Kd value, ITC (rGABARAP^Y174A [21]): No binding
